Measured values: PubChem BioAssay AID248 (DTP/NCI, 2004)
Values joined by “and” are separate entries in the source; they are usually repeats but may differ in a detail not shown here. Equal values may be shown once. Inconclusive results and toxic doses are left out. No stated cut-off is given here; in the data, active means T/C of 150% or more; inactive means T/C below 125%.

Test system: L1210 leukemia ip in BDF1 mice, survival T/C
Test: NCI In Vivo Anticancer Drug Screen. Data for tumor model L1210 Leukemia (intraperitoneal) in B6D2F1 (BDF1) mice
Conditions: endpoint: mean survival time, higher = longer survival
Procedure, shortened: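 Antitumor effect is assessed in tumor-bearing animals. Survival in the compound arm is compared with a vehicle-dosed control arm and expressed as their quotient.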

[1] = dose: 100.0 mg/kg/injection, schedule: Q04DX003 (ip), vehicle: Klucel (hydroxypropylcellulose) (HPC)
[2] = dose: 200.0 mg/kg/injection, schedule: Q04DX003 (ip), vehicle: Klucel (hydroxypropylcellulose) (HPC)
[3] = dose: 100.0 mg/kg/injection, schedule: Q01DX009 (ip), vehicle: saline
[4] = dose: 100.0 mg/kg/injection, schedule: Q01DX009 (ip), vehicle: Klucel (hydroxypropylcellulose) (HPC)
[5] = dose: 200.0 mg/kg/injection, schedule: Q01DX009 (ip), vehicle: Klucel (hydroxypropylcellulose) (HPC)
[6] = dose: 400.0 mg/kg/injection, schedule: Q01DX009 (ip), vehicle: Klucel (hydroxypropylcellulose) (HPC)
[7] = dose: 400.0 mg/kg/injection, schedule: Q04DX003 (ip), vehicle: Klucel (hydroxypropylcellulose) (HPC)
[8] = dose: 100.0 mg/kg/injection, schedule: Q01DX001 (ip), vehicle: carboxymethylcellulose (CMC)
[9] = dose: 200.0 mg/kg/injection, schedule: Q01DX001 (ip), vehicle: carboxymethylcellulose (CMC)
[10] = dose: 400.0 mg/kg/injection, schedule: Q01DX001 (ip), vehicle: carboxymethylcellulose (CMC)
[11] = dose: 100.0 mg/kg/injection, schedule: Q04DX003 (ip), vehicle: saline with Tween-80
[12] = dose: 200.0 mg/kg/injection, schedule: Q04DX003 (ip), vehicle: saline with Tween-80
[13] = dose: 50.0 mg/kg/injection, schedule: Q04DX003 (ip), vehicle: saline with Tween-80

Measured: T/C

CCC[CH2][Sn]([CH2]C)([CH2]CCC)[CH2]CCC
inactive: dose: 100.0 mg/kg/injection, schedule: Q04DX003 (ip), vehicle: saline 93 % of control | dose: 200.0 mg/kg/injection, schedule: Q04DX003 (ip), vehicle: saline 93 % of control | dose: 400.0 mg/kg/injection, schedule: Q04DX003 (ip), vehicle: saline 95 % of control

O=C(O)/C=C/S(=O)(=O)Cc1ccccc1
inactive: [1] 98 % of control | [2] 100 % of control

Cc1ccc(S(=O)(=O)OCC(F)(F)C(F)(F)C(F)(F)C(F)(F)C(F)(F)C(F)(F)C(F)(F)F)cc1
inactive: [3] 94 % of control | dose: 200.0 mg/kg/injection, schedule: Q01DX009 (ip), vehicle: saline 88 % of control | dose: 400.0 mg/kg/injection, schedule: Q01DX009 (ip), vehicle: saline 93 % of control

COC(=O)CCSC(c1ccccc1)(c1ccccc1)c1ccccc1
inactive: [4] 104 % of control | [1] 96 % of control | [5] 94 % of control | [2] 93 % of control | [6] 100 % of control | [7] 93 % of control

CN(C)/N=C/c1cccc[n+]1C
inactive: dose: 6.25 mg/kg/injection, schedule: Q01DX009 (ip), vehicle: saline 102 % of control | dose: 12.5 mg/kg/injection, schedule: Q01DX009 (ip), vehicle: saline 106 % of control | dose: 25.0 mg/kg/injection, schedule: Q01DX009 (ip), vehicle: saline 115 % of control

O=S1(=O)CC2C1C1(Cl)C(Cl)=C(Cl)C2(Cl)C1(Cl)Cl (stereo not drawn)
inactive: dose: 50.0 mg/kg/injection, schedule: Q01DX001 (ip), vehicle: carboxymethylcellulose (CMC) 100 % of control | [8] 91 % of control | [9] 96 % of control | [10] 96 % of control

CCOc1ccccc1NC(=O)Nc1cccc(Cl)c1
inactive: [1] 100 % of control | [5] 94 % of control | [2] 100 % of control | [6] 97 % of control | [7] 104 % of control

O=C(O)C1C(C(=O)O)C2(Cl)C(Cl)=C(Cl)C1(Cl)C2(Cl)Cl.[Mn] (stereo not drawn)
inactive: dose: 44.0 mg/kg/injection, schedule: Q01DX009 (ip), vehicle: saline 107 % of control | dose: 50.0 mg/kg/injection, schedule: Q01DX009 (ip), vehicle: saline sonified 114 % of control | dose: 66.0 mg/kg/injection, schedule: Q01DX009 (ip), vehicle: saline 105 % of control | [3] 105 % of control | [1] 97 % of control | dose: 150.0 mg/kg/injection, schedule: Q01DX009 (ip), vehicle: saline 112 % of control | dose: 200.0 mg/kg/injection, schedule: Q01DX009 (ip), vehicle: saline sonified 104 % of control | [2] 95 % of control

CCCCNS(=O)(=O)c1ccc(NC(=O)c2ccc3ccccc3c2O)c([N+](=O)[O-])c1
inactive: [11] 90 % of control | [12] 88 % of control | dose: 400.0 mg/kg/injection, schedule: Q04DX003 (ip), vehicle: saline with Tween-80 88 % of control

CSc1nc(N)c2c(=O)c(C(N)=O)cn(C3OC(CO)C(O)C3O)c2n1 (stereo not drawn)
inactive: dose: 100.0 mg/kg/injection, schedule: Q01DX005 (ip), vehicle: saline 95 % of control | dose: 200.0 mg/kg/injection, schedule: Q01DX005 (ip), vehicle: saline 93 % of control

CC(=O)Oc1cc(-c2c(C)cc(C)cc2C)c(OC(C)=O)cc1C
inactive: [4] 104 % of control | [1] 94 % of control | [5] 97 % of control | [2] 90 % of control | [6] 97 % of control | [7] 95 % of control

CCC1(CC)C(=O)C=CNC1=O
inactive: [13] 95 % of control | [11] 107 % of control | [12] 102 % of control

O=C(CN1CCCCC1)Nc1cccc(C(F)(F)F)c1
inactive: [4] 99 % of control | [1] 97 % of control | [5] 100 % of control | [2] 98 % of control | [6] 100 % of control | [7] 93 % of control

Nc1ccc(OCc2ccccc2)cc1
inactive: dose: 50.0 mg/kg/injection, schedule: Q01DX009 (ip), vehicle: saline with Tween-80 96 % of control | [13] 100 % of control | dose: 100.0 mg/kg/injection, schedule: Q01DX009 (ip), vehicle: saline with Tween-80 87 % of control | [11] 103 % of control | [12] 109 % of control

CCOC(=O)P(=O)(OCC)OCC
inactive: [8] 101 % of control | [9] 95 % of control | [10] 104 % of control

NNCC(F)(F)C(F)(F)C(F)(F)C(F)(F)C(F)(F)C(F)(F)C(F)(F)C(F)F
inactive: dose: 100.0 mg/kg/injection, schedule: Q01DX009 (ip), vehicle: DMSO 91 % of control | dose: 100.0 mg/kg/injection, schedule: Q04DX003 (ip), vehicle: DMSO 89 % of control | dose: 200.0 mg/kg/injection, schedule: Q01DX009 (ip), vehicle: DMSO 92 % of control | dose: 200.0 mg/kg/injection, schedule: Q04DX003 (ip), vehicle: DMSO 88 % of control | dose: 400.0 mg/kg/injection, schedule: Q04DX003 (ip), vehicle: DMSO 94 % of control

O=[N+]([O-])c1ccc2[nH]c(O)c(N=Nc3ccccc3[N+](=O)[O-])c2c1
inactive: dose: 100.0 mg/kg/injection, schedule: Q01DX001 (ip), vehicle: saline 98 % of control | dose: 200.0 mg/kg/injection, schedule: Q01DX001 (ip), vehicle: saline 96 % of control | dose: 400.0 mg/kg/injection, schedule: Q01DX001 (ip), vehicle: saline 105 % of control

C[CH2][Pb]([CH2]C)([CH2]C)[O]C(=O)C(Cl)(Cl)Cl
inactive: dose: 0.39 mg/kg/injection, schedule: Q01DX009 (ip), vehicle: other 101 % of control and 105 % of control | dose: 0.78 mg/kg/injection, schedule: Q01DX009 (ip), vehicle: other 102 % of control and 90 % of control | dose: 1.5 mg/kg/injection, schedule: Q01DX001 (ip), vehicle: other 113 % of control | dose: 1.5 mg/kg/injection, schedule: Q04DX002 (ip), vehicle: other 100 % of control | dose: 1.56 mg/kg/injection, schedule: Q01DX009 (ip), vehicle: other 93 % of control | dose: 3.0 mg/kg/injection, schedule: Q01DX001 (ip), vehicle: other 103 % of control | dose: 3.0 mg/kg/injection, schedule: Q04DX002 (ip), vehicle: other 100 % of control | dose: 6.0 mg/kg/injection, schedule: Q01DX001 (ip), vehicle: other 107 % of control | dose: 6.0 mg/kg/injection, schedule: Q04DX002 (ip), vehicle: other 109 % of control | dose: 6.25 mg/kg/injection, schedule: Q04DX003 (ip), vehicle: other 92 % of control | dose: 12.0 mg/kg/injection, schedule: Q04DX002 (ip), vehicle: other 101 % of control | dose: 12.5 mg/kg/injection, schedule: Q01DX001 (ip), vehicle: other 89 % of control | dose: 12.5 mg/kg/injection, schedule: Q04DX003 (ip), vehicle: other 97 % of control | dose: 25.0 mg/kg/injection, schedule: Q01DX001 (ip), vehicle: other 100 % of control | dose: 25.0 mg/kg/injection, schedule: Q04DX002 (ip), vehicle: carboxymethylcellulose (CMC) 94 % of control and 102 % of control | dose: 25.0 mg/kg/injection, schedule: Q04DX003 (ip), vehicle: other 87 % of control

C=CCNc1ccnc(SC)n1
inactive: dose: 100.0 mg/kg/injection, schedule: Q01DX001 (ip), vehicle: gum acacia 94 % of control | dose: 200.0 mg/kg/injection, schedule: Q01DX001 (ip), vehicle: gum acacia 103 % of control
